The target of one test is 5HT2a receptor (Homo sapiens (Human), UniProt P28223). The test can be described thus: Secondary radioligand binding assay, 5HT2a. Conditions: average of at least two experiments.
The target in another test is 5HT1a receptor (Homo sapiens (Human), UniProt P08908). As to the kind of experiment: Secondary radioligand binding assay, 5HT1a. The following applies: average of at least two experiments.
The next test concerns the target dopamine D4 receptor (Homo sapiens (Human), UniProt P21917). As to the kind of experiment: Secondary radioligand binding assay, D4. The following applies: receptor binding; average of at least two experiments; read-out: Ki D4. As for the experimental part: 1. Secondary Radioligand Binding Assays
The detailed experimental protocols for the radioligand and functional receptor assays are available on the NIMH PDSP website at http://pdsp.med.unc.edu/UNC-CH %20Protocol %20Book.pdf.
Radioligand is diluted to five times the assay concentration (see Table 18) in Standard Binding Buffer. Typically, the assay concentration of radioligand is a value between one half the KD and the KD of a particular radioligand at its target. 50 μl aliquots of radioligand are dispensed into the wells of a 96-well plate containing 100 μl of Standard Binding Buffer. Then, duplicate 50 μl aliquots of the test and reference compound dilutions are added.
The 250 μl reactions are incubated at room temperature and shielded from light (to prevent photolysis of light-sensitive ligands) for 1.5 hours, then harvested by rapid filtration onto Whatman GF/B glass fiber filters pre-soaked with 0.3% polyethyleneimine using a 96-well Brandel harverster. Four rapid 500 μl washes are performed with chilled Standard Binding Buffer to reduce non-specific binding. Filters are placed in 6 ml scintillation tubes and allowed to dry overnight. The next day, 4 ml of EcoScint scintillation cocktail (National Diagnostics) are added to each tube. The tubes are capped, labeled, and counted by liquid scintillation counting. […] The filter mats are dried, then scintillant is melted onto the filters and the radioactivity retained on the filters is counted in a Microbeta scintillation counter.
Raw data (dpm) representing total radioligand binding (i.e. specific+non-specific binding) are plotted as a function of the logarithm of the molar concentration of the competitor (i.e. test or reference compound).
B. Dopamine Receptors: D1, D2, D3, D4, D5 Assay Buffers: Dopamine Binding Buffer (50 mM NaCl, 50 mM HEPES-HCl, 5 mM MgCl2, 0.5 mM EDTA, pH 7.4) Membrane Fraction Source: Transiently or stably transfected cell lines (e.g. HEK293, COS, CHO, NIH3T3)
The method is carried out in the manner described for the serotonin receptor assay above. Eleven dilutions (5× assay concentration) of the test and reference (see Table 19) compounds are prepared in Dopamine Binding Buffer by serial dilution, as previously described. Radioligand is diluted to five times the assay concentration (see Table 20) in Dopamine Binding Buffer.

The target in a further test is 5HT2c receptor (Homo sapiens (Human), UniProt P28335). As to the kind of experiment: Secondary radioligand binding assay, 5HT2c. The following applies: average of at least two experiments.
Sequence of 5HT2c receptor (P28335 33-458): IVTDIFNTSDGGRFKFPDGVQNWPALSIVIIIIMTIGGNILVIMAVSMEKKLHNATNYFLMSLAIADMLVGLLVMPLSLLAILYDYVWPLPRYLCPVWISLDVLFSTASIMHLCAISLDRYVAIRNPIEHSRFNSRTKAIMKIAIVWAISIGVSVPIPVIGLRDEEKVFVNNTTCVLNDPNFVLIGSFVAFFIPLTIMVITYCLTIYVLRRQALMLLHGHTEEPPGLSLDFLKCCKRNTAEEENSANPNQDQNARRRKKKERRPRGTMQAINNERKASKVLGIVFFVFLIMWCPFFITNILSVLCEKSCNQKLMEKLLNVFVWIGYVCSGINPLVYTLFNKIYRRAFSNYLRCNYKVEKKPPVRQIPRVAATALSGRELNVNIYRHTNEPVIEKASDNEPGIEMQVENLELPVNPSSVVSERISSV

Ki data for two molecules are collected here from patent US9079895B2, “Morpholino compounds, uses and methods” (University of Dundee, priority 2012, dated 2015).

Structures can show the parent of a compound that is named as a salt.

Sequence of 5HT2a receptor (P28223 whole entry): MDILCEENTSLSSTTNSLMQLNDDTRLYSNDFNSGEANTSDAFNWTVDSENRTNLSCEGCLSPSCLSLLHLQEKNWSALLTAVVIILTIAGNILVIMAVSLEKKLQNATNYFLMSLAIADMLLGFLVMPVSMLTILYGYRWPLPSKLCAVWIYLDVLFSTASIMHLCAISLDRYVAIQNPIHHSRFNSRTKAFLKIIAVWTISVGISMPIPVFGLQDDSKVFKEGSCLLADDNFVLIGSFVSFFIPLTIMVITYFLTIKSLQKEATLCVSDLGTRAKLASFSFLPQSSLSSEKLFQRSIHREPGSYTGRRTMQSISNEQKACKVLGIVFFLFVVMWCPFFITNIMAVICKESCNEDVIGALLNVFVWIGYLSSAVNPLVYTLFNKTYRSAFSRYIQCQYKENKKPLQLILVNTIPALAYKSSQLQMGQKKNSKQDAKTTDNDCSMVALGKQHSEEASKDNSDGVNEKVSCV
Sequence of 5HT1a receptor (P08908 whole entry): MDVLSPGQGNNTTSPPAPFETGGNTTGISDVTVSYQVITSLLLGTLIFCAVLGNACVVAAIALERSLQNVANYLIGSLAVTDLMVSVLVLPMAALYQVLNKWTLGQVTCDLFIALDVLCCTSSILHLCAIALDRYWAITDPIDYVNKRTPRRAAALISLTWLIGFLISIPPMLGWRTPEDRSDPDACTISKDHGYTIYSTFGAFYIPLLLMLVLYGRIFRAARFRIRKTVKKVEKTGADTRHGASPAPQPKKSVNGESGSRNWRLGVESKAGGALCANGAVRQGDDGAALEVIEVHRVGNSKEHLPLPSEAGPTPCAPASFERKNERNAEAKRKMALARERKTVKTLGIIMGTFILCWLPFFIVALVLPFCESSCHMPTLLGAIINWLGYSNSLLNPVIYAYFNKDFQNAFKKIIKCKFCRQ
Sequence of dopamine D4 receptor (P21917 whole entry, species assumed): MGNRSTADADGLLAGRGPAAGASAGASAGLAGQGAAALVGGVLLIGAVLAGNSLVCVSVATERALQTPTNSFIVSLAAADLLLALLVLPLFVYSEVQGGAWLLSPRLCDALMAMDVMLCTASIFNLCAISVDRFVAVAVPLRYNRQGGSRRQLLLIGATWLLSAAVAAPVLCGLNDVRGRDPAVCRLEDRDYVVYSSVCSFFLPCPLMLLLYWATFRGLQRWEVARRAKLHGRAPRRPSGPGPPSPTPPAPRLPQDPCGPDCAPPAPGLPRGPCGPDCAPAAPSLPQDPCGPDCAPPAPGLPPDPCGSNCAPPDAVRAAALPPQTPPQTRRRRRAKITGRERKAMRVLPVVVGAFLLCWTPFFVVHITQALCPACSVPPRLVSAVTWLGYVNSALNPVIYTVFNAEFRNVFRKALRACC
Experimental for 5HT2a receptor: (§1) Assay Buffer: Standard Binding Buffer (50 mM Tris-HCl, 10 mM MgCl2, 1 mM EDTA, pH 7.4)
(§2) Membrane Fraction Source: Transiently or stably transfected cell lines (e.g., HEK293, COS, CHO, NIH3T3)
Experimental for 5HT2c receptor: as §1, §2

Consider `COc1cccc(OC[C@H]2CN(CCN3CCc4ccccc43)CCO2)c1` [Compound 25r, (R)-4-(2-(Indolin-1-yl)ethyl)-2-((3-methoxyphenoxy)methyl)morpholine], for which the results for the Ki on 5HT2a receptor and at 5HT1a receptor were 3780 nM and 1470 nM, respectively.
With `Fc1ccc(OC[C@@H]2CN(CCN3CCc4ccccc43)CCO2)cc1` [Compound 32s, (S)-2-((4-fluorophenoxy)methyl)-4-(2-(indolin-1-yl)ethyl)morpholine hydrochloride], the Ki is 3930 nM on dopamine D4 receptor, 1110 nM on 5HT2c receptor and 374 nM on 5HT2a receptor.
